Source: US20110251220A1, “Pharmaceutical compositions comprising gamma secretase modulators” (priority 2008, published 2011)

Tests used:
MM cells = assay: Cell cycle analysis (propidium iodide staining), MM cells; format: cell-based, human; conditions: after 48 h and 72 h
Experimental: The compound according to example 1, hereinafter referred to as GSI15, (compound RH02015SC, Maybridge, Acros Organics, Geel, Belgium) was freshly dissolved as 26 mM stock solution in Dimethylsulfoxide (DMSO). Multiple myeloma therapeutics used were melphalan (marketed as Alkeran®, GlaxoSmithKline, Munich, Germany) and bortezomib (marketed as Velcade®, Janssen-Cilag, Neuss, Germany). Melphalan was freshly dissolved at 10 mg/ml in 0.9% NaCl-solution. Bortezomib was freshly dissolved at 100 ng/ml in 0.9% NaCl solution. Gamma Secretase Inhibitor (GSI) treatment for apoptosis assessment by AnnexinV/PI staining, cell cycle analysis and coculture experiments was performed in 6-well plates. GSI15 stock solution was added directly to the cell suspension. GSI treatment for assaying proliferation was performed in 96-well plates. […]
For cell cycle analysis 2×10^5 cells were spun down, medium was aspirated and cells washed with PBS. […] After 10 minutes incubation in the dark at room temperature, cells were analyzed by flow cytometry. The amount of apoptotic cells was determined by AnnexinV/propidium iodide staining using Human AnnexinV-FITC Kit (Bender Medsystems, Vienna, Austria), according to manufacturer's protocol. […] Cells were then spun down again, resuspended in binding buffer containing PI and analyzed by flow cytometry.

MSC = assay: Viability assay, MSC; format: cell-based, human
Experimental: For assaying proliferation/viability of cells CellTiter-Glo Luminescent Cell Viability Assay (Promega, Mannheim, Germany) was used. In this assay the number of viable cells at a given time point is determined by quantification of ATP present, which serves as a measure of metabolically active cells. The assay was carried out according to manufacturer's protocol. Briefly, cells were plated in 96-well plates at 10,000 cells per well in 100 μl medium and treated with indicated amounts of GSI15, with DMSO as solvent control or left untreated. Each treatment was done in four independent replicates in different wells. 24 h and 48 h after start of treatment 30 μl per well were transferred into an opaque-walled plate and lysed using CellTiter-Glo solution. Luminescence was recorded and integrated for two seconds per well. Average values were calculated and normalized to the respective untreated sample.

male Sprague-Dawley rats = assay: PAN-model of albuminuric glomerular disease; format: in vivo, rat; conditions: day 7, 500 μg/100 g rat i.p. once per day, compared to PAN alone
Experimental: For the in vivo studies male Sprague-Dawley rats were purchased from Charles River and treated with puromycin aminoglycoside (PAN) to induce albuminuric glomerular disease as described previously (Niranjan et al., “The Notch pathway in podocytes plays a role in the development of glomerular disease.” Nat. Med. 14: 290-298, 2008). Rats were injected PAN (150 mg/kg) once. The test compounds were administered intraperitoneally (500 μg/100 g rat) once per day (n=4 animals per group). Injection of test compounds were started one day after PAN injection. All studies were performed in accordance with the European Union normative. As a positive control one group of rats received gamma secretase inhibitor DAPT.
Urinary albumine was measured at the indicated days as described previously (Sanchez-Nino et al., “The MIF receptor CD74 in diabetic podocyte injury”. J. Am. Soc. Nephrol. 20: 353-362, 2009). For total protein measurement urine samples were centrifuged and pellets were diluted in distilled water. Exton reagent (230 mM sulfosalic acid, 1.4 M sodium sulfate) was added and after 10 minutes absorbance was measured at 620 nm.

Structure (SMILES): CC(C)c1ccc(S(=O)(=O)Nc2cccnc2Oc2ccc(Cl)cc2)cc1 [Example 1, N-(2-(4-chlorophenoxy)pyridin-3-yl)-4-isopropylbenzenesulfonamide]
- distribution of G1-, S- and G2-phase (MM cells): remained unaltered
- viability (MSC): no difference between untreated and GSI15 treated
- inhibition of albuminuria (male Sprague-Dawley rats): 56%
- inhibition of proteinuria (male Sprague-Dawley rats): 50%
